Reference: patent publication US6548079B1, “Moxifloxacin formulation containing common salt” (Bayer Aktiengesellschaft, priority 1999, dated 2003)
Structures can show the parent of a compound that is named as a salt.

How the values were obtained:
[1] = Solubility of moxifloxacin HCl in the presence of sodium chloride; assay type: physicochemical; settings: for Solubility moxifloxacin HCl: 5° C.; for solubility thermodynamic: sodium chloride solution, 5 °C, thermodynamic from solid
Method: For a dosage range of from 100 mg to 1000 mg at active compound concentrations of from 0.04% to 0.4% (w/v) of moxifloxacin hydrochloride, it is thus possible to adjust the osmotic pressure to physiological conditions by adding from 0.4% to 0.9% of sodium chloride. […] This ensures that, even on short-term cold storage, there is no precipitation of the active compound as a result of exceeding the saturation solubilities. [table]

[2] = physchem; settings: water (aqueous solution without NaCl)

In the case of `COc1c(N2C[C@@H]3CCCN[C@@H]3C2)c(F)cc2c(=O)c(C(=O)O)cn(C3CC3)c12` [moxifloxacin HCl, 1-cyclopropyl-7-([S,S]-2,8-diazabicyclo[4.3.0]non-8-yl)-6-fluoro-1,4-dihydro-8-methoxy-4-oxo-3-quinolonecarboxylic acid], the “Solubility moxifloxacin HCl” value ([1]; NaCl 0.7 % (w/v)) was 0.2 % (w/v), the “Solubility moxifloxacin HCl” value ([1]; NaCl 0.8 % (w/v)) was 0.2 % (w/v) and the solubility thermodynamic ([1]; saline or isotonic, NaCl 0.1 % (w/v)) was 11000 µg/mL. The solubility thermodynamic ([1]; saline or isotonic, NaCl 0.2 % (w/v)) was 7000 µg/mL, the solubility thermodynamic ([1]; saline or isotonic, NaCl 0.3 % (w/v)) was 5000 µg/mL and the solubility thermodynamic ([1]; saline or isotonic, NaCl 0.4 % (w/v)) was 4000 µg/mL. For the same compound, the solubility thermodynamic ([1]; saline or isotonic, NaCl 0.5 % (w/v)) was 3000 µg/mL, the solubility thermodynamic ([1]; saline or isotonic, NaCl 0.6 % (w/v)) was 2000 µg/mL and the solubility thermodynamic ([1]; saline or isotonic, NaCl 0.9 % (w/v)) was 1000 µg/mL. For the same compound, the solubility thermodynamic ([1]; water, NaCl 0 % (w/v)) was 18000 µg/mL and the solubility thermodynamic [2] was roughly 24000 µg/mL.
